In ChEMBL document CHEMBL4507290 (2021):

Tests used:
[1] = target: Fibroblast growth factor receptor 4 (Homo sapiens) (UniProt P22455); conditions: Compound concentration 1000.0 nM
[2] = tested on: Phosphatidylinositol 4,5-bisphosphate 3-kinase catalytic subunit alpha isoform (Homo sapiens), P42336 [E545K]; conditions: Compound concentration 1000.0 nM
[3] = target: Serine/threonine-protein kinase pim-3 (Homo sapiens) (UniProt Q86V86); conditions: Compound concentration 1000.0 nM
[4] = target: Calcium/calmodulin-dependent protein kinase type 1D (Homo sapiens) (UniProt Q8IU85); conditions: Compound concentration 1000.0 nM
[5] = target: Mitogen-activated protein kinase kinase kinase kinase 3 (Homo sapiens) (UniProt Q8IVH8); conditions: Compound concentration 1000.0 nM
[6] = target: Serine/threonine-protein kinase Sgk2 (Homo sapiens) (UniProt Q9HBY8); conditions: Compound concentration 1000.0 nM
[7] = target: Proto-oncogene tyrosine-protein kinase receptor Ret (Homo sapiens) (UniProt P07949); conditions: Compound concentration 1000.0 nM
[8] = target: Casein kinase II subunit alpha (Homo sapiens) (UniProt P68400); conditions: Compound concentration 1000.0 nM
[9] = target: STE20-like serine/threonine-protein kinase (Homo sapiens) (UniProt Q9H2G2); conditions: Compound concentration 1000.0 nM
[10] = target: Serine/threonine-protein kinase Nek7 (Homo sapiens) (UniProt Q8TDX7); conditions: Compound concentration 1000.0 nM
[11] = target: LIM domain kinase 1 (Homo sapiens) (UniProt P53667); conditions: Compound concentration 1000.0 nM
[12] = tested on: Mast/stem cell growth factor receptor Kit (Homo sapiens), P10721 [L576P]; conditions: Compound concentration 1000.0 nM
[13] = target: Cyclin-dependent kinase 2 (Homo sapiens) (UniProt P24941); conditions: Compound concentration 1000.0 nM
[14] = target: Dual serine/threonine and tyrosine protein kinase (Homo sapiens) (UniProt Q6XUX3); conditions: Compound concentration 1000.0 nM
[15] = target: Mitogen-activated protein kinase kinase kinase 3 (Homo sapiens) (UniProt Q99759); conditions: Compound concentration 1000.0 nM
[16] = target: Serine/threonine-protein kinase 32C (Homo sapiens) (UniProt Q86UX6); conditions: Compound concentration 1000.0 nM
[17] = target: Protein-tyrosine kinase 6 (Homo sapiens) (UniProt Q13882); conditions: Compound concentration 1000.0 nM
Protein-tyrosine kinase 6 (Homo sapiens), sequence (Q13882 whole entry, looked up): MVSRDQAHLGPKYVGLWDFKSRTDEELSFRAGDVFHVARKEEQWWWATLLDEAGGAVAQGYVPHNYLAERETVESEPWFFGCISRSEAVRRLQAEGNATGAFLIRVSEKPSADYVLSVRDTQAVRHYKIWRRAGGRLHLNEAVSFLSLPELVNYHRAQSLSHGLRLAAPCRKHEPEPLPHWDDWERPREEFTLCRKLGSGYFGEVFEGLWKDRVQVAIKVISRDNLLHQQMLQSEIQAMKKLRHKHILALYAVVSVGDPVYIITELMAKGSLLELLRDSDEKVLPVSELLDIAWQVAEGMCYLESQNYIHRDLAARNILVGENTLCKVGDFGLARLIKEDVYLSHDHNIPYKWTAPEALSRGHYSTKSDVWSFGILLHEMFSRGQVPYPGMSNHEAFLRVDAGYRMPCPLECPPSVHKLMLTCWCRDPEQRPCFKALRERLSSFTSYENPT

[18] = target: Serine/threonine-protein kinase D1 (Homo sapiens) (UniProt Q15139); conditions: Compound concentration 1000.0 nM
[19] = target: Casein kinase I isoform epsilon (Homo sapiens) (UniProt P49674); conditions: Compound concentration 1000.0 nM
[20] = target: Ribosomal protein S6 kinase alpha-1 (Homo sapiens) (UniProt Q15418); conditions: Compound concentration 1000.0 nM
[21] = target: Tyrosine-protein kinase ZAP-70 (Homo sapiens) (UniProt P43403); conditions: Compound concentration 1000.0 nM
Tyrosine-protein kinase ZAP-70 (Homo sapiens), sequence (P43403 whole entry, canonical isoform): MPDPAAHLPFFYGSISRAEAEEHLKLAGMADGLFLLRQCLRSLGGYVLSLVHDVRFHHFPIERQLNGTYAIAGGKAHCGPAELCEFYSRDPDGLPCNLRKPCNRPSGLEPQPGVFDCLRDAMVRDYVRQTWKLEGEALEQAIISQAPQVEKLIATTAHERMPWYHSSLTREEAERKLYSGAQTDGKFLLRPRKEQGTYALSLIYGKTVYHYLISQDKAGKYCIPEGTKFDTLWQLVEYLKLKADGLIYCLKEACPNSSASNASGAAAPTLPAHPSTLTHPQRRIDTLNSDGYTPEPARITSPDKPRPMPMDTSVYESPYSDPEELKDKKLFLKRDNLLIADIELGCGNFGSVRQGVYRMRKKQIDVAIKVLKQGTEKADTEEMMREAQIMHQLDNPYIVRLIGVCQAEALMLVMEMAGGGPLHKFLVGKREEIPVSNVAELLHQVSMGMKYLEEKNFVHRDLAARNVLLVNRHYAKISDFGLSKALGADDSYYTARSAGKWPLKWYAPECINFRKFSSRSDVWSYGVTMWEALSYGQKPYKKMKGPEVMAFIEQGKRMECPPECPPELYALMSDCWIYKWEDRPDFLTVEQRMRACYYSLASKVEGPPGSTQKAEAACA

[22] = tested on: Phosphatidylinositol 4,5-bisphosphate 3-kinase catalytic subunit alpha isoform (Homo sapiens), P42336 [M1043I]; conditions: Compound concentration 1000.0 nM
[23] = target: Ribosomal protein S6 kinase alpha-2 (Homo sapiens) (UniProt Q15349); conditions: Compound concentration 1000.0 nM
[24] = target: Ephrin type-A receptor 3 (Homo sapiens) (UniProt P29320); conditions: Compound concentration 1000.0 nM
[25] = tested on: Mast/stem cell growth factor receptor Kit (Homo sapiens), P10721 [D816V]; conditions: Compound concentration 1000.0 nM
[26] = target: Serine/threonine-protein kinase 10 (Homo sapiens) (UniProt O94804); conditions: Compound concentration 1000.0 nM
[27] = target: Calcium/calmodulin-dependent protein kinase kinase 2 (Homo sapiens) (UniProt Q96RR4); conditions: Compound concentration 1000.0 nM
[28] = target: Serine/threonine-protein kinase ICK (Homo sapiens) (UniProt Q9UPZ9); conditions: Compound concentration 1000.0 nM
Serine/threonine-protein kinase ICK (Homo sapiens), sequence (Q9UPZ9 whole entry): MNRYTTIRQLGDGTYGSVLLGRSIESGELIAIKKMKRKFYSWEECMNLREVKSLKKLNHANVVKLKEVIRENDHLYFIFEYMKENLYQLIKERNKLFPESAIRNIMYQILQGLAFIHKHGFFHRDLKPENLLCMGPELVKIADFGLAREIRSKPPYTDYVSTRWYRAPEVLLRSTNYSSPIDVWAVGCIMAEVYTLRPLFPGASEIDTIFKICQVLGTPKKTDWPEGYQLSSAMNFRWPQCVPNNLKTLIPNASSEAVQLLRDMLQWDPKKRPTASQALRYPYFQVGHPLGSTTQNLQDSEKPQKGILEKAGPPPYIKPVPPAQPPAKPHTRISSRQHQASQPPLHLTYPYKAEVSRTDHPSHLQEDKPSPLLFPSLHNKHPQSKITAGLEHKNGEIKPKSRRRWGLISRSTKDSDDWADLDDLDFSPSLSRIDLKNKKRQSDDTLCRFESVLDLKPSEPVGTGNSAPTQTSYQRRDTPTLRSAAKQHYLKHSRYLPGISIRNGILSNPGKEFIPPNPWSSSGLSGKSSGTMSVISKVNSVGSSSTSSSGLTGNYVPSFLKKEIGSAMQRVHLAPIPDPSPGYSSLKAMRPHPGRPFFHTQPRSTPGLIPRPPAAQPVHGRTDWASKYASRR

[29] = target: Tyrosine-protein kinase JAK2 (Homo sapiens) (UniProt O60674); conditions: Compound concentration 1000.0 nM
[30] = target: 5-hydroxytryptamine receptor 1E (Homo sapiens) (UniProt P28566); conditions: Compound concentration 10.0 uM
[31] = target: Beta-adrenergic receptor kinase 1 (Homo sapiens) (UniProt P25098); conditions: Compound concentration 1000.0 nM
[32] = target: Mitogen-activated protein kinase kinase kinase 14 (Homo sapiens) (UniProt Q99558); conditions: Compound concentration 1000.0 nM
Mitogen-activated protein kinase kinase kinase 14 (Homo sapiens), sequence (Q99558 whole entry, looked up): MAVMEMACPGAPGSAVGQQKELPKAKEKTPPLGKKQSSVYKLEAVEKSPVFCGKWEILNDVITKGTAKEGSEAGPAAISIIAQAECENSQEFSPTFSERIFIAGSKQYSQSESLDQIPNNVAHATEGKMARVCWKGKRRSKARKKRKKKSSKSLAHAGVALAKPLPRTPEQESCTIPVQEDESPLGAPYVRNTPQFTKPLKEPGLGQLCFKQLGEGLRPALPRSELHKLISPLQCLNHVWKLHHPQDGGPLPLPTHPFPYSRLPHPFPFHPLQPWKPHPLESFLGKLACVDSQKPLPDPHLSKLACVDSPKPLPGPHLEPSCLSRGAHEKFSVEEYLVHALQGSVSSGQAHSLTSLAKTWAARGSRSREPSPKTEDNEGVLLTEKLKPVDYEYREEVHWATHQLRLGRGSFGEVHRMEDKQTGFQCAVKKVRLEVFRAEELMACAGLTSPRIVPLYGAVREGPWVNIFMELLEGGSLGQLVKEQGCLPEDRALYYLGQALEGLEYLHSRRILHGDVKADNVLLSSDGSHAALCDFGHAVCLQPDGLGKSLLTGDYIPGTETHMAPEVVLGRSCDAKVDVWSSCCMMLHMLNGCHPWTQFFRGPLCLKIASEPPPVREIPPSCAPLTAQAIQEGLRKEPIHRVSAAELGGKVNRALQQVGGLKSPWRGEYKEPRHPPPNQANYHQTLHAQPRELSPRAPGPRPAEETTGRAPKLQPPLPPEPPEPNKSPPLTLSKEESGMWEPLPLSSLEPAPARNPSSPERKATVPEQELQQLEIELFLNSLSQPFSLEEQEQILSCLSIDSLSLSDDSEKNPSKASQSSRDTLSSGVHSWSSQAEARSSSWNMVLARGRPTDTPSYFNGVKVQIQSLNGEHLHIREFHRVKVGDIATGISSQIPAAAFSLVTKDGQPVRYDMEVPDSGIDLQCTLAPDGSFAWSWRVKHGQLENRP

[33] = target: Serine/threonine-protein kinase Chk1 (Homo sapiens) (UniProt O14757); conditions: Compound concentration 1000.0 nM
[34] = target: Myosin-IIIa (Homo sapiens) (UniProt Q8NEV4); conditions: Compound concentration 1000.0 nM
Myosin-IIIa (Homo sapiens), sequence (Q8NEV4 whole entry): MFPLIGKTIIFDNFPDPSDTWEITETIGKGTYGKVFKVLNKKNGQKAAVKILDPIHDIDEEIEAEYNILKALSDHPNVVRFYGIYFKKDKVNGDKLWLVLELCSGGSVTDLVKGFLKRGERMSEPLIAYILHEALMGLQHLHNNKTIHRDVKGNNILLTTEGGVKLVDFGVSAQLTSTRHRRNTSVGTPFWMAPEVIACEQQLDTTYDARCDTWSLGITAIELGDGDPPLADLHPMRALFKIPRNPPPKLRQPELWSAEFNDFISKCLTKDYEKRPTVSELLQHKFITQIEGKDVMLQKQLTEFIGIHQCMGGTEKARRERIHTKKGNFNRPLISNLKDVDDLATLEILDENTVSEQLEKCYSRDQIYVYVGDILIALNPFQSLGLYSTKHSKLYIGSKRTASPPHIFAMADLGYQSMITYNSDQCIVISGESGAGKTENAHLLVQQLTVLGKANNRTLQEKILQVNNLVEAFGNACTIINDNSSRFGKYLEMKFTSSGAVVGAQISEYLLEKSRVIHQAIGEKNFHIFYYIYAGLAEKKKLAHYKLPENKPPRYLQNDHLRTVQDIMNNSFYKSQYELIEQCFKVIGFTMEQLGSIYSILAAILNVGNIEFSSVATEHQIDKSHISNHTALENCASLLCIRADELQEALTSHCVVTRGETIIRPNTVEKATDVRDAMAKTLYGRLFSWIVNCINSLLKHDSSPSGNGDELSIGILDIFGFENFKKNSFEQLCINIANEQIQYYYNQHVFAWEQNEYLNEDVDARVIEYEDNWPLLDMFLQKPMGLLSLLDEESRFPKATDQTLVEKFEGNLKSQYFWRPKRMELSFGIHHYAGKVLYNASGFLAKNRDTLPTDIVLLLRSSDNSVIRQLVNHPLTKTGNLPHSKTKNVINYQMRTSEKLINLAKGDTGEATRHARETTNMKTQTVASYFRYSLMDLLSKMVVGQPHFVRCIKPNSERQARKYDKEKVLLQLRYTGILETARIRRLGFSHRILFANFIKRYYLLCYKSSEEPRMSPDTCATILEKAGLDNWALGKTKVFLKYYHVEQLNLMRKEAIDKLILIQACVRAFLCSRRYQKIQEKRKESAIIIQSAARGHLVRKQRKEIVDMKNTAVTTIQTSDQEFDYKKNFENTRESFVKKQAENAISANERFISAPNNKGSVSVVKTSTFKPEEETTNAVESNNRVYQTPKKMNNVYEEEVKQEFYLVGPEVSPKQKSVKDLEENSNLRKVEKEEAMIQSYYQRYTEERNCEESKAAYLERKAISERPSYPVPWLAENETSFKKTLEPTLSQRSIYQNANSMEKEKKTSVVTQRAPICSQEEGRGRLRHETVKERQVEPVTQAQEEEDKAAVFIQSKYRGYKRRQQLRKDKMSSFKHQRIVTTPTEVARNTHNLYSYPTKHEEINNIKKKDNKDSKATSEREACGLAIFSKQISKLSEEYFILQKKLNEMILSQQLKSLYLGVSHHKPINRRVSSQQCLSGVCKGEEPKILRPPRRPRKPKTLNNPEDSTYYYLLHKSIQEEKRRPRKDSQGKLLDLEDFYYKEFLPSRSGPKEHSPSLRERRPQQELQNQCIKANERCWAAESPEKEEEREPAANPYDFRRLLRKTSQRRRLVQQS

[35] = target: Mitogen-activated protein kinase kinase kinase 1 (Homo sapiens) (UniProt Q13233); conditions: Compound concentration 1000.0 nM
[36] = target: Serine/threonine-protein kinase MAK (Homo sapiens) (UniProt P20794); conditions: Compound concentration 1000.0 nM
[37] = target: Tyrosine-protein kinase Yes (Homo sapiens) (UniProt P07947); conditions: Compound concentration 1000.0 nM
[38] = tested on: Tyrosine-protein kinase ABL1 (Homo sapiens), P00519 [F317I]; conditions: Compound concentration 1000.0 nM
[39] = target: Serine/threonine-protein kinase Chk2 (Homo sapiens) (UniProt O96017); conditions: Compound concentration 1000.0 nM
[40] = target: Phosphatidylinositol 4-kinase beta (Homo sapiens) (UniProt Q9UBF8); conditions: Compound concentration 1000.0 nM
[41] = target: Serine/threonine-protein kinase SBK1 (Homo sapiens) (UniProt Q52WX2); conditions: Compound concentration 1000.0 nM
[42] = target: Casein kinase I isoform alpha (Homo sapiens) (UniProt P48729); conditions: Compound concentration 1000.0 nM
[43] = target: Epidermal growth factor receptor (Homo sapiens) (UniProt P00533); conditions: Compound concentration 1000.0 nM
[44] = target: Ribosomal protein S6 kinase alpha-5 (Homo sapiens) (UniProt O75582); conditions: Compound concentration 1000.0 nM
[45] = target: Activin receptor type-1B (Homo sapiens) (UniProt P36896); conditions: Compound concentration 1000.0 nM

Fibroblast growth factor receptor 4 (Homo sapiens), sequence (P22455 22-802 limits assumed): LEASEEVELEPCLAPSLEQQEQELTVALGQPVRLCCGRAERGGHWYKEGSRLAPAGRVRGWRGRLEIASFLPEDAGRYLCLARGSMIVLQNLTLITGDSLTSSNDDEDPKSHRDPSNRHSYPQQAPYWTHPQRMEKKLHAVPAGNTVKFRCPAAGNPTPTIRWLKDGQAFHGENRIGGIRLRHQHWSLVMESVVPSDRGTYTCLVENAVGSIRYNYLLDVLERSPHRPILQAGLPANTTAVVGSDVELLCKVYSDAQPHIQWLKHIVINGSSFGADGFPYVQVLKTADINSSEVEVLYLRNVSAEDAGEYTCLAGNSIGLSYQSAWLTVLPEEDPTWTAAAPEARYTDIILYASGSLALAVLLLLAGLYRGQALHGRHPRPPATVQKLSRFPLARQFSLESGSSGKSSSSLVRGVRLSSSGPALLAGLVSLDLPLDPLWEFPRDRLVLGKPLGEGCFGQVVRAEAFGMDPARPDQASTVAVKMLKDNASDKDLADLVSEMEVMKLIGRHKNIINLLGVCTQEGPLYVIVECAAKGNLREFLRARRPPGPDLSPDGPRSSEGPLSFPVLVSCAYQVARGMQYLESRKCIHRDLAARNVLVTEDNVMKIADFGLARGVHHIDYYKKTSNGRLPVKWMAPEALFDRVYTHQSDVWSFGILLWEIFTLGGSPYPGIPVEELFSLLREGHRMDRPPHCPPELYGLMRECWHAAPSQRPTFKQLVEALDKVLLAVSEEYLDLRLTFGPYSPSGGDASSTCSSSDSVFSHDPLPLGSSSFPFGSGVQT

CN([C@@H]1CCc2c(CC(=O)O)c3cc(S(C)(=O)=O)ccc3n2C1)S(=O)(=O)c1ccc(F)cc1
inactive: residual activity [1] 99% | residual activity [2] 84% | residual activity [3] 100% | residual activity [4] 99% | residual activity [5] 100% | residual activity [6] 100% | residual activity [7] 100% | residual activity [8] 91% | residual activity [9] 100% | residual activity [10] 98% | residual activity [11] 100% | residual activity [12] 89% | residual activity [13] 100% | residual activity [14] 77% | residual activity [15] 85% | residual activity [16] 100% | residual activity [17] 92% | residual activity [18] 75% | residual activity [19] 96% | residual activity [20] 100% | residual activity [21] 100% | residual activity [22] 98% | residual activity [23] 100% | residual activity [24] 97% | residual activity [25] 95% | residual activity [26] 100% | residual activity [27] 100% | residual activity [28] 93% | residual activity [29] 100% | inhibition [30] 5.5% | residual activity [31] 84% | residual activity [32] 76% | residual activity [33] 100% | residual activity [34] 100% | residual activity [35] 66% | residual activity [36] 65% | residual activity [37] 88% | residual activity [38] 75% | residual activity [39] 100% | residual activity [40] 98% | residual activity [41] 100% | residual activity [42] 100% | residual activity [43] 100% | residual activity [44] 85% | residual activity [45] 99%

CN([C@@H]1CCc2c(CC(=O)O)c3ccccc3n2C1)S(=O)(=O)c1ccc(F)cc1 [MK-7246]
inactive: residual activity [1] 91% | residual activity [2] 86% | residual activity [3] 100% | residual activity [4] 100% | residual activity [5] 100% | residual activity [6] 100% | residual activity [7] 100% | residual activity [8] 82% | residual activity [9] 100% | residual activity [10] 100% | residual activity [11] 100% | residual activity [12] 100% | residual activity [13] 100% | residual activity [14] 82% | residual activity [15] 100% | residual activity [16] 100% | residual activity [17] 100% | residual activity [18] 100% | residual activity [19] 90% | residual activity [20] 100% | residual activity [21] 100% | residual activity [22] 100% | residual activity [23] 100% | residual activity [24] 95% | residual activity [25] 100% | residual activity [26] 100% | residual activity [27] 100% | residual activity [28] 100% | residual activity [29] 100% | inhibition [30] 35.8% | residual activity [31] 86% | residual activity [32] 100% | residual activity [33] 100% | residual activity [34] 100% | residual activity [35] 62% | residual activity [36] 82% | residual activity [37] 100% | residual activity [38] 79% | residual activity [39] 100% | residual activity [40] 100% | residual activity [41] 100% | residual activity [42] 80% | residual activity [43] 95% | residual activity [44] 95% | residual activity [45] 96%
